{"source": "paper PMC7854729", "about": "(Nature Communications, 2021)", "key": {"SARS-CoV-2": {"tested_on": "SARS-CoV-2", "experiment": "microbe, parasite or virus in culture", "type": "cell-based, SARS-CoV-2 (nCoV/Washington/1/2020) in Vero E6 cells", "conditions": "for EC50: Severe acute respiratory syndrome coronavirus 2, Vero C1008, 24 h; for Percent Spike Positive Cells: relative to DMSO treated cells, single replicates"}, "SARS-CoV": {"tested_on": "SARS-CoV", "conditions": "cited from earlier work"}, "PLpro from MERS": {"tested_on": "PLpro from MERS", "conditions": "cited from earlier work"}, "Vero E6 cells": {"tested_on": "Vero E6 cells", "conditions": "cited from earlier work"}, "SARS-CoV-2 PLpro": {"molecular_target": "SARS-CoV-2 PLpro (Severe acute respiratory syndrome coronavirus 2, UniProt P0DTD1)", "experiment": "biochemical"}}, "note": "Values joined by “and” are separate entries in the source; they are usually repeats but may differ in a detail not shown here. Equal entries are not always repeated. Where two headings read alike, the source gives them in different places.", "data": [{"smiles": "Cc1ccc(N)cc1C(=O)N[C@H](C)c1cccc2ccccc12", "note": "[Compound 1, 5-amino-2-methyl-N-[(1R)-1-naphthalen-1-ylethyl]benzamide]", "values": [{"measurement": "inhibition of virus replication", "setting": "SARS-CoV-2", "value": "inhibiting virus replication"}, {"measurement": "EC50", "setting": "SARS-CoV-2", "value": "1.4 ± 0.65", "unit": "µM"}, {"measurement": "potency in SARS-CoV-infected Vero E6 cells", "setting": "SARS-CoV", "value": "good potency"}, {"measurement": "inhibition of MERS PLpro", "setting": "PLpro from MERS", "value": "not inhibited"}, {"measurement": "cytotoxicity", "setting": "Vero E6 cells", "value": "low cytotoxicity"}]}, {"smiles": "Cc1ccc(NC(=O)Oc2ccc([N+](=O)[O-])cc2)cc1C(=O)N[C@H](C)c1cccc2ccccc12", "note": "[Compound 6, 5-(((4-nitrophenoxy)carbonyl)amino)-2-methyl-N-[(1R)-1-naphthalen-1-ylethyl]benzamide]", "values": [{"measurement": "PLpro assay signal (source data Figure 2, single replicates)", "setting": "SARS-CoV-2 PLpro; Log(M) -3.30103, listed as 6 (Snyder538)", "value": "62 and 61 and 69"}, {"measurement": "PLpro assay signal (source data Figure 2, single replicates)", "setting": "SARS-CoV-2 PLpro; Log(M) -3.60206, listed as 6 (Snyder538)", "value": "86 and 78 and 83"}, {"measurement": "PLpro assay signal (source data Figure 2, single replicates)", "setting": "SARS-CoV-2 PLpro; Log(M) -4, listed as 6 (Snyder538)", "value": "127 and 161 and 203"}, {"measurement": "PLpro assay signal (source data Figure 2, single replicates)", "setting": "SARS-CoV-2 PLpro; Log(M) -4.30103, listed as 6 (Snyder538)", "value": "120 and 170 and 193"}, {"measurement": "PLpro assay signal (source data Figure 2, single replicates)", "setting": "SARS-CoV-2 PLpro; Log(M) -4.69897, listed as 6 (Snyder538)", "value": "420 and 406 and 486"}, {"measurement": "PLpro assay signal (source data Figure 2, single replicates)", "setting": "SARS-CoV-2 PLpro; Log(M) -5, listed as 6 (Snyder538)", "value": "662 and 534 and 618"}, {"measurement": "PLpro assay signal (source data Figure 2, single replicates)", "setting": "SARS-CoV-2 PLpro; Log(M) -5.39794, listed as 6 (Snyder538)", "value": "926 and 988 and 896"}, {"measurement": "PLpro assay signal (source data Figure 2, single replicates)", "setting": "SARS-CoV-2 PLpro; Log(M) -5.69897, listed as 6 (Snyder538)", "value": "1105 and 1269 and 1030"}, {"measurement": "PLpro assay signal (source data Figure 2, single replicates)", "setting": "SARS-CoV-2 PLpro; Log(M) -6.09691, listed as 6 (Snyder538)", "value": "1318 and 1309 and 1349"}, {"measurement": "PLpro assay signal (source data Figure 2, single replicates)", "setting": "SARS-CoV-2 PLpro; Log(M) -6.39794, listed as 6 (Snyder538)", "value": "1380 and 1317 and 1379"}, {"measurement": "IC50", "setting": "SARS-CoV-2 PLpro; pH 7.3, read-out: IC50", "value": "7 ± 0.6", "unit": "µM"}, {"measurement": "inhibition of virus replication", "setting": "SARS-CoV-2; Vero E6, SARS-CoV-2", "value": "inhibiting virus replication"}, {"measurement": "Percent Spike Positive Cells", "setting": "SARS-CoV-2; [Drug] 0.1 uM", "value": "92% and 115% (2×)"}, {"measurement": "Percent Spike Positive Cells", "setting": "SARS-CoV-2; [Drug] 1 uM", "value": 115, "unit": "%"}, {"measurement": "Percent Spike Positive Cells", "setting": "SARS-CoV-2; [Drug] 10 uM", "value": "46% and 69%"}]}, {"smiles": "Nc1cc(C(=O)Nc2cccc3ccccc23)cc(C(F)(F)F)c1", "note": "[Compound 4]", "values": [{"measurement": "IC50", "setting": "SARS-CoV-2 PLpro; IC50", "value": "43.2 ± 9.4", "unit": "µM"}, {"measurement": "PLpro assay signal (source data Figure 2, single replicates)", "setting": "SARS-CoV-2 PLpro; Log(M) -0.30103, listed as 4 (Snyder550)", "value": "498 and 310 and 468"}, {"measurement": "PLpro assay signal (source data Figure 2, single replicates)", "setting": "SARS-CoV-2 PLpro; Log(M) -0.60206, listed as 4 (Snyder550)", "value": "426 and 463 and 490"}, {"measurement": "PLpro assay signal (source data Figure 2, single replicates)", "setting": "SARS-CoV-2 PLpro; Log(M) -1, listed as 4 (Snyder550)", "value": "617 and 632 and 562"}, {"measurement": "PLpro assay signal (source data Figure 2, single replicates)", "setting": "SARS-CoV-2 PLpro; Log(M) -1.30103, listed as 4 (Snyder550)", "value": "679 and 720 and 747"}, {"measurement": "PLpro assay signal (source data Figure 2, single replicates)", "setting": "SARS-CoV-2 PLpro; Log(M) -1.69897, listed as 4 (Snyder550)", "value": "956 and 920 and 944"}, {"measurement": "PLpro assay signal (source data Figure 2, single replicates)", "setting": "SARS-CoV-2 PLpro; Log(M) -2, listed as 4 (Snyder550)", "value": "1073 and 1048 and 930"}, {"measurement": "PLpro assay signal (source data Figure 2, single replicates)", "setting": "SARS-CoV-2 PLpro; Log(M) -2.39794, listed as 4 (Snyder550)", "value": "1192 and 1138 and 1087"}, {"measurement": "PLpro assay signal (source data Figure 2, single replicates)", "setting": "SARS-CoV-2 PLpro; Log(M) -2.69897, listed as 4 (Snyder550)", "value": "1318 and 1220 and 924"}, {"measurement": "PLpro assay signal (source data Figure 2, single replicates)", "setting": "SARS-CoV-2 PLpro; Log(M) -3.09691, listed as 4 (Snyder550)", "value": "1177 and 1051 and 1092"}, {"measurement": "PLpro assay signal (source data Figure 2, single replicates)", "setting": "SARS-CoV-2 PLpro; Log(M) -3.39794, listed as 4 (Snyder550)", "value": "1045 and 1012 and 1221"}, {"measurement": "EC50", "setting": "SARS-CoV-2; read-out: EC50", "value": "1.7 ± 4.4", "unit": "µM"}, {"measurement": "inhibition of virus replication", "setting": "SARS-CoV-2; Vero E6, SARS-CoV-2", "value": "inhibiting virus replication"}, {"measurement": "Percent Spike Positive Cells", "setting": "SARS-CoV-2; [Drug] 0.1 uM", "value": "75% and 100% and 88%"}, {"measurement": "Percent Spike Positive Cells", "setting": "SARS-CoV-2; [Drug] 1 uM", "value": "88% and 81% and 63%"}, {"measurement": "Percent Spike Positive Cells", "setting": "SARS-CoV-2; [Drug] 10 uM", "value": 0, "unit": "%"}]}, {"smiles": "C=CC(=O)Nc1ccc(C)c(C(=O)N[C@H](C)c2cccc3ccccc23)c1", "note": "[Compound 3, 5-acrylamide-2-methyl-N-[(1R)-1-naphthalen-1-ylethyl]benzamide]", "values": [{"measurement": "PLpro assay signal (source data Figure 2, single replicates)", "setting": "SARS-CoV-2 PLpro; Log(M) -3.69897, listed as 3 (Snyder530)", "value": "91 and 88 and 87"}, {"measurement": "PLpro assay signal (source data Figure 2, single replicates)", "setting": "SARS-CoV-2 PLpro; Log(M) -4, listed as 3 (Snyder530)", "value": "107 (2×) and 106"}, {"measurement": "PLpro assay signal (source data Figure 2, single replicates)", "setting": "SARS-CoV-2 PLpro; Log(M) -4.39794, listed as 3 (Snyder530)", "value": "175 (2×) and 163"}, {"measurement": "PLpro assay signal (source data Figure 2, single replicates)", "setting": "SARS-CoV-2 PLpro; Log(M) -4.69897, listed as 3 (Snyder530)", "value": "282 and 274 and 281"}, {"measurement": "PLpro assay signal (source data Figure 2, single replicates)", "setting": "SARS-CoV-2 PLpro; Log(M) -5.09691, listed as 3 (Snyder530)", "value": "401 and 387 and 371"}, {"measurement": "PLpro assay signal (source data Figure 2, single replicates)", "setting": "SARS-CoV-2 PLpro; Log(M) -5.39794, listed as 3 (Snyder530)", "value": "551 and 511 and 480"}, {"measurement": "PLpro assay signal (source data Figure 2, single replicates)", "setting": "SARS-CoV-2 PLpro; Log(M) -5.79588, listed as 3 (Snyder530)", "value": "638 and 706 and 719"}, {"measurement": "PLpro assay signal (source data Figure 2, single replicates)", "setting": "SARS-CoV-2 PLpro; Log(M) -6.09691, listed as 3 (Snyder530)", "value": "726 and 781 and 797"}, {"measurement": "PLpro assay signal (source data Figure 2, single replicates)", "setting": "SARS-CoV-2 PLpro; Log(M) -6.49485, listed as 3 (Snyder530)", "value": "808 and 740 and 787"}, {"measurement": "PLpro assay signal (source data Figure 2, single replicates)", "setting": "SARS-CoV-2 PLpro; Log(M) -6.79588, listed as 3 (Snyder530)", "value": "765 and 796 and 803"}, {"measurement": "IC50", "setting": "SARS-CoV-2 PLpro; pH 7.3, read-out: IC50", "value": 6.4, "unit": "µM"}, {"measurement": "inhibition of virus replication", "setting": "SARS-CoV-2; Vero E6, SARS-CoV-2", "value": "failed"}]}, {"smiles": "CCCCC(=O)Nc1ccc(C)c(C(=O)N[C@H](C)c2cccc3ccccc23)c1", "note": "[Compound 7, 5-pentanoylamino-2-methyl-N-[(1R)-1-naphthalen-1-ylethyl]benzamide]", "values": [{"measurement": "PLpro assay signal (source data Figure 2, single replicates)", "setting": "SARS-CoV-2 PLpro; Log(M) -3.30103, listed as 7 (Snyder514)", "value": "189 and 225 and 281"}, {"measurement": "PLpro assay signal (source data Figure 2, single replicates)", "setting": "SARS-CoV-2 PLpro; Log(M) -3.60206, listed as 7 (Snyder514)", "value": "257 and 276 and 274"}, {"measurement": "PLpro assay signal (source data Figure 2, single replicates)", "setting": "SARS-CoV-2 PLpro; Log(M) -4, listed as 7 (Snyder514)", "value": "332 and 331 and 303"}, {"measurement": "PLpro assay signal (source data Figure 2, single replicates)", "setting": "SARS-CoV-2 PLpro; Log(M) -4.30103, listed as 7 (Snyder514)", "value": "346 and 354 and 361"}, {"measurement": "PLpro assay signal (source data Figure 2, single replicates)", "setting": "SARS-CoV-2 PLpro; Log(M) -4.69897, listed as 7 (Snyder514)", "value": "672 and 717 and 815"}, {"measurement": "PLpro assay signal (source data Figure 2, single replicates)", "setting": "SARS-CoV-2 PLpro; Log(M) -5, listed as 7 (Snyder514)", "value": "856 and 922 and 1036"}, {"measurement": "PLpro assay signal (source data Figure 2, single replicates)", "setting": "SARS-CoV-2 PLpro; Log(M) -5.39794, listed as 7 (Snyder514)", "value": "1160 and 1233 and 1196"}, {"measurement": "PLpro assay signal (source data Figure 2, single replicates)", "setting": "SARS-CoV-2 PLpro; Log(M) -5.69897, listed as 7 (Snyder514)", "value": "1260 and 1362 and 1272"}, {"measurement": "PLpro assay signal (source data Figure 2, single replicates)", "setting": "SARS-CoV-2 PLpro; Log(M) -6.09691, listed as 7 (Snyder514)", "value": "1429 and 1375 and 1302"}, {"measurement": "PLpro assay signal (source data Figure 2, single replicates)", "setting": "SARS-CoV-2 PLpro; Log(M) -6.39794, listed as 7 (Snyder514)", "value": "1493 and 1486 and 1598"}, {"measurement": "IC50", "setting": "SARS-CoV-2 PLpro; pH 7.3, read-out: IC50", "value": "12.7 ± 1.3", "unit": "µM"}, {"measurement": "EC50", "setting": "SARS-CoV-2; read-out: EC50", "value": "5.2 ± 4.2", "unit": "µM"}, {"measurement": "inhibition of virus replication", "setting": "SARS-CoV-2; Vero E6, SARS-CoV-2", "value": "inhibiting virus replication"}, {"measurement": "Percent Spike Positive Cells", "setting": "SARS-CoV-2; [Drug] 0.1 uM", "value": "115% (2×) and 92%"}, {"measurement": "Percent Spike Positive Cells", "setting": "SARS-CoV-2; [Drug] 1 uM", "value": "69% (2×) and 115%"}, {"measurement": "Percent Spike Positive Cells", "setting": "SARS-CoV-2; [Drug] 10 uM", "value": "46% and 23% and 35%"}]}]}
